Results taken from US11472769B2, “SSAO inhibitors and use thereof” (Eccogene (Shanghai) Co., Ltd., priority 2019, dated 2022).

What was measured:
recombinant hSSAO = recombinant hSSAO (Homo sapiens (Human), UniProt Q16853); assay: SSAO Activity Assay (MAO-Glo assay kit); assay type: biochemical; conditions: 40 μM substrate, 30 mins pre-incubation
How it was run: (§1)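 Substrate was 4 μM in MAO-B buffer for hMAO-B and 40 μM in MAO-A buffer for hSSAO and hMAO-A. Each enzyme first saw compound (0.1% DMSO vehicle) for 30 min at room temperature.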

recombinant hMAO-A = recombinant hMAO-A (Homo sapiens (Human), UniProt P21397); assay: MAO-A activity assay (MAO-Glo assay kit); assay type: biochemical; conditions: 40 μM substrate, 30 mins pre-incubation
Sequence of recombinant hMAO-A (P21397 whole entry): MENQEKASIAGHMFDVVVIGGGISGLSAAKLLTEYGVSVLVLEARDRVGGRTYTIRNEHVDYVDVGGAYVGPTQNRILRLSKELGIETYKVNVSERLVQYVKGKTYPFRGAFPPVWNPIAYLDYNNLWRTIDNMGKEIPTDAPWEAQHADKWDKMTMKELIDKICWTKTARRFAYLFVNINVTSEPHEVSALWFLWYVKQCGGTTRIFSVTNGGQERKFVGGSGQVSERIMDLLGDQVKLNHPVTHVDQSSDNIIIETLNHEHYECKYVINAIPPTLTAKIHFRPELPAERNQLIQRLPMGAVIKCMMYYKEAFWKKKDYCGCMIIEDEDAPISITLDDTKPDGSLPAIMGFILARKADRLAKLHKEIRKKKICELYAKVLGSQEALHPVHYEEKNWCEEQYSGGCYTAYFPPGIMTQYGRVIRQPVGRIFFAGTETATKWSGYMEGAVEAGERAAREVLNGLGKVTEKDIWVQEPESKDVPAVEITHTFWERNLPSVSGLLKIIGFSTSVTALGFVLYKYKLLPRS
How it was run: as §1

recombinant hMAO-B = recombinant hMAO-B (Homo sapiens (Human), UniProt P27338); assay: MAO-B activity assay (MAO-Glo assay kit); assay type: biochemical; conditions: 4 μM substrate, 30 mins pre-incubation
Sequence of recombinant hMAO-B (P27338 whole entry): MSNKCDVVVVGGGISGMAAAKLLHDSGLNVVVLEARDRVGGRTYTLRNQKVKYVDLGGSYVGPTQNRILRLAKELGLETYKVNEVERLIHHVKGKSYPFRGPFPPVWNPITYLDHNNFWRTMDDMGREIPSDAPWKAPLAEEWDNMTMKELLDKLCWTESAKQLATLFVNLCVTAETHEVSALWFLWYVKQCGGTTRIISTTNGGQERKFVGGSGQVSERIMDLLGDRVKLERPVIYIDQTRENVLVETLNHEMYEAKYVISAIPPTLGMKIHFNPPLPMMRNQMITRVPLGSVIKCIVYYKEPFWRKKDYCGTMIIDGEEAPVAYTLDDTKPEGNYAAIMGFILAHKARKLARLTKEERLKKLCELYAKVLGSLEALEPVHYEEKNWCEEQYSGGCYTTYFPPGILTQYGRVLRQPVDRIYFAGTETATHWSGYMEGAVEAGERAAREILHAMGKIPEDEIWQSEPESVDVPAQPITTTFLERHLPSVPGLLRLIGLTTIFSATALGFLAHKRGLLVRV
How it was run: as §1

[1] = Brain Kpuu assay (BBB assay and protein binding assay); assay type: in vivo; conditions: mouse; ICR mice, 1 mg/kg IV, plasma and brain collected at 5 minutes after dosing; read-out: Kpuu (mouse, t = 5 min)
Method: For example, Brain Kpuu assay composed of Blood-Brain-Barrier (BBB) assay and protein binding assay, can be utilized. The protein binding assay comprises equilibrium dialysis against brain lysate and plasma to calculate fu(brain) and fu(plasma), respectively. The BBB assay can be conducted in experimental animals at 1 mg/kg IV dosage. After dosing with the compounds of the present application, plasma and brain samples can be collected to analyze compound concentration (Cplasma and Cbrain). The Kpuu value of the tested compounds can be calculated by the equation: […]
Brain Kpuu assay is composed of Blood-Brain-Barrier (BBB) assay and protein binding assay, which are conducted in ICR mice. Protein binding assays were performed in 96-well plates, using equilibrium dialysis against brain lysate and plasma to calculate fu(brain) and fu(plasma), respectively. BBB assays were conducted in mice at 1 mg/kg IV dosage. Plasma and brain samples were collected at 5 minutes after dosing to analyze compounds concentration (Cplasma and Cbrain). The Kpuu value of the tested compounds was calculated by the equation: […]

Sequence of recombinant hSSAO (Q16853 whole entry): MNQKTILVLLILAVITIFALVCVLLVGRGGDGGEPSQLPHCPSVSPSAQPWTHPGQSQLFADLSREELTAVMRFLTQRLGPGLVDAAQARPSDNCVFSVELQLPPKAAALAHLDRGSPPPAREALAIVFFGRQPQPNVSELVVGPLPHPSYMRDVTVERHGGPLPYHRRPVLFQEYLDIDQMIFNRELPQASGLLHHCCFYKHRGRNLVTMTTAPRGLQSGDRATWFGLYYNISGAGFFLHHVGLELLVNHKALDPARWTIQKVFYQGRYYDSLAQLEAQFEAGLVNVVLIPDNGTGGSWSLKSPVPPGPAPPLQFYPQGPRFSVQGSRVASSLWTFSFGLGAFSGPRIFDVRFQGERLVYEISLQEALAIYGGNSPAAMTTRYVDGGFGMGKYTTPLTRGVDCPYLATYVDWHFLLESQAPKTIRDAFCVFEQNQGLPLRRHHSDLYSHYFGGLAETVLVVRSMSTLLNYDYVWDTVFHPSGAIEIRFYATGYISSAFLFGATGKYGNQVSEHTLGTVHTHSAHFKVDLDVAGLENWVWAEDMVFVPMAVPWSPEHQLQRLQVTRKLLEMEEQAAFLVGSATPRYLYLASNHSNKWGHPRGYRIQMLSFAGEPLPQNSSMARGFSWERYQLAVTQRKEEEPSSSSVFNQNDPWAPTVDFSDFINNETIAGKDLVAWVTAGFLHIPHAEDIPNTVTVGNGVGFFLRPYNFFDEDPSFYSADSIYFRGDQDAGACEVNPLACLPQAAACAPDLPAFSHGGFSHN

Row | SMILES | IC50 (recombinant hSSAO) [µM] | IC50 (recombinant hMAO-A) [µM] | IC50 (recombinant hMAO-B) [µM] | Kp uu at 5 min [1]
1 | NC/C(=C\F)COc1ccc(S(=O)(=O)CC2CCN(C(=O)C3CC3)CC2)cc1 [Compound 44, (E)-(4-(((4-((2-(aminomethyl)-3-fluoroallyl)oxy)phenyl)sulfonyl)methyl)piperidin-1-yl)(cyclopropyl)methanone] | 0.02 to 0.1 | > 30 | > 30 | 0.025
2 | NC/C(=C\F)COc1ccc(S(=O)(=O)CC23CCC(C(=O)NCC(F)(F)F)(CC2)CC3)cc1 [Compound 65, (E)-4-(((4-((2-(aminomethyl)-3-fluoroallyl)oxy)phenyl)sulfonyl)methyl)-N-(2,2,2-trifluoroethyl)bicyclo[2.2.2] octane-1-carboxamide] | < 0.02 | > 30 | 10 to 30 | 0.018
3 | CC(C)(C)NC(=O)C12CCC(CS(=O)(=O)c3ccc(OC/C(=C/F)CN)cc3)(CC1)CC2 [Compound 70, (E)-4-(((4-((2-(aminomethyl)-3-fluoroallyl)oxy)phenyl)sulfonyl)methyl)-N-(tert-butyl)bicyclo[2.2.2]octane-1-carboxamide] | 0.02 to 0.1 | > 30 | 10 to 30 | 0.01
4 | CC1(C(=O)NC23CCC(CS(=O)(=O)c4ccc(OC/C(=C/F)CN)cc4)(CC2)CC3)CC1 [Compound 91, (E)-N-(4-(((4-((2-(aminomethyl)-3-fluoroallyl)oxy)phenyl)sulfonyl)methyl)bicyclo[2.2.2]octan-1-yl)-1-methylcyclopropane-1-carboxamide] | < 0.02 | > 30 | 10 to 30 | 0.077
